The values below come from PMC11684006, “A Putative Frizzled 7-Targeting Compound Acts as a Firefly Luciferase Inhibitor” (Journal of Medicinal Chemistry, 2024).

Each structure is given as a SMILES string.

For the experiment, the target named is T1, Firefly luciferase (Fluc) (Photinus pyralis, UniProt P08659).
T1 construct: Fluc amplified from the Super8X TOPFlash reporter plasmid, constitutively expressed under a CMV promoter
As to the kind of experiment: Fluc bioluminescence in lysates of compound-treated ΔFZD1–[…] HEK293T cells expressing CMV-driven Fluc (counter assay); Rluc and Nluc unaffected. In kind it is cell-based.

T1 sequence (P08659 whole entry): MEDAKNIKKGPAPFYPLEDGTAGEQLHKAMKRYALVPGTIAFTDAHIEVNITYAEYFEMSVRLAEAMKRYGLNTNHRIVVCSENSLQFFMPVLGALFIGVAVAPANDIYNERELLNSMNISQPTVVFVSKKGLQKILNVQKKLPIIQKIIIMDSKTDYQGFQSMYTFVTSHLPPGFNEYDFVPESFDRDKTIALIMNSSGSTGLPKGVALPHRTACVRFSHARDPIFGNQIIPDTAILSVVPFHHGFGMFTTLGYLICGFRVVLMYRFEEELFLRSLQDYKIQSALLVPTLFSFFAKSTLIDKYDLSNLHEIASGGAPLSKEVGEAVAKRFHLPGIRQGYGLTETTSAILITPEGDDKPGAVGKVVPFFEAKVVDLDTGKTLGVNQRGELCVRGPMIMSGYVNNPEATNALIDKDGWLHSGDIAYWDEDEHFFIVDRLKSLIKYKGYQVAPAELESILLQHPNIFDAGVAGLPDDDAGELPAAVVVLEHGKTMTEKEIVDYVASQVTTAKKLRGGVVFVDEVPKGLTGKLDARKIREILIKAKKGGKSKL

The term IC50 denotes the concentration needed to halve the response being measured. A high value points to weaker potency. As for `Cc1ccc(C(=O)Nc2ccc(SCC(=O)Nc3nc(-c4ccccc4)cs3)cc2)c(C)c1` [compound 3, 2,4-Dimethyl-N-(4-((2-oxo-2-((4-phenylthiazol-2-yl)amino)ethyl)thio)phenyl)benzamide], the IC50 worked out at 0.025 µM.
